Each block holds one compound with its values, some of them ahead of it. Ends that are not written are not given here.
Assays:
[1] = target: T1, ITGAV and IGF1R pairing in UW-SCC64 PDX tumors (Homo sapiens, UniProt P08069); experiment: PLA between IGF1R and ITGAV on tumor sections; format: in vivo, nude mice; settings: pump
T1 construct: from tissue; host or cells: UW-SCC22 and UW-SCC64 PDX tumours, subcutaneous in nude mice
Experimental: (§1) Paraffin-embedded PDX sections, sections of deidentified archival tumors from patients with tonsil carcinoma, or TMAs assembled from patients with deidentified oropharyngeal (TMA-01, TMA-02) or adenoid cystic (TMA-03) carcinoma were deparaffinized and subjected to antigen retrieval by heating in 10 mmol/L sodium citrate (pH 6.0) with 0.05% Tween 20 until boiling and then maintained at 99°C for 20 minutes before cooling to room temperature. The sections were then used for receptor and PLA staining, as described above. Fluorescent images were acquired using either a Zeiss PlanAPOCHROMAT 20X objective (0.8 NA) or 40X (1.4 NA) and a Zeiss AxioCam Mrm CCD camera on a Zeiss Axio Imager.M2 microscopy system. CellProfiler 3.1.5 (Carpenter Lab, Broad Institute of Harvard and MIT) was used to quantify nuclei and PLA signals with threshold limits based on relevant comparative controls. Cell Profiler software analysis was checked by direct comparison with visual quantification of PLA dots or DAPI-stained nuclei in test images to accurately quantify PLA dots per cell and to exclude false or background fluorescence. The specificity of the antibodies used and the concentrations of PLA reagents used were optimized on test samples before use on experimental sections.

[2] = target: T2, ITGAV and IGF1R pairing in UW-SCC22 PDX tumors (Homo sapiens, UniProt P08069); experiment: PLA between IGF1R and ITGAV on tumor sections; format: in vivo, nude mice; settings: 4 weeks
T2 construct: from tissue; host or cells: UW-SCC22 and UW-SCC64 PDX tumours, subcutaneous in nude mice
T2 sequence (P08069 31-736 limits assumed): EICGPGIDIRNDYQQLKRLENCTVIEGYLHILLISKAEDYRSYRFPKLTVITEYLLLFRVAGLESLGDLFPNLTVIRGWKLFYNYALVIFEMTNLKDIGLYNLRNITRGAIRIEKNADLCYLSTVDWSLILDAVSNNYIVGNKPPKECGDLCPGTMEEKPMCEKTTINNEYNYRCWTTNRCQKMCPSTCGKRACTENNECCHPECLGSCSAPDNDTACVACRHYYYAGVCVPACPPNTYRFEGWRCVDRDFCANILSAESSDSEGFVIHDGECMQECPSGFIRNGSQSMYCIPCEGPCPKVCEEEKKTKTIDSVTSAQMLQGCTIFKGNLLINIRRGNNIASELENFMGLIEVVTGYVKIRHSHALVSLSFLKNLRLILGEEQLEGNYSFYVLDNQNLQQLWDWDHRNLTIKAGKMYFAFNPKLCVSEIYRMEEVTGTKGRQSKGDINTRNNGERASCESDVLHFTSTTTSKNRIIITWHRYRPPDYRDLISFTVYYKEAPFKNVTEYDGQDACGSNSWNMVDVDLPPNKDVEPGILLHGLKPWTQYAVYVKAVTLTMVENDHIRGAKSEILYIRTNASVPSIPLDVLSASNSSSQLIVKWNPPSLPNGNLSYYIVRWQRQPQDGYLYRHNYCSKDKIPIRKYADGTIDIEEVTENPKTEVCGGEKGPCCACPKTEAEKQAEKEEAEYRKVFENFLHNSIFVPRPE
Experimental: as §1

UW-SCC22 HNSCC PDX = experiment: PDX tumor growth in nude mice; format: in vivo; settings: 4 weeks; for reduction of tumor growth compared with controls: P < 0.001
Excerpt: (§2) Animal studies were approved by the University of Wisconsin–Madison Institutional Animal Care and Use Committee in accordance with the NIH guidelines. UW-SCC22 or UW-SCC64 PDXs derived from head and neck tumors ([31, 32]) were provided by Wisconsin Head and Neck Cancer SPORE (https://hn-spore.wisc.edu). Minced tissue isolated from host mice was subcutaneously injected into both flanks of 6–8 weeks old female, athymic Foxn1^nu outbred nude mice (Harlan Laboratories). After 1 week, animals were randomized and surgically implanted with Alzet (Durect Corp.) osmotic pumps (Model 2004) delivering 0.25 μL/hour of either PBS or PBS containing 4 mmol/L hSSTNIGF1R for 4 weeks. Animals were humanely sacrificed, bled, and tumors were removed and fixed in 4% paraformaldehyde before paraffin embedding and sectioning.

UW-SCC64 PDX = experiment: PDX tumor growth in nude mice; format: in vivo; settings: peptide delivered by the pump only, P < 0.001
Excerpt: as §2

Serum IGF1 ELISA = format: in vivo, mice; settings: for IGF1 (ng/mL) ± SD: hSSTNIGF1R delivered by Alzet pumps, ELISA, n = 6
Experimental: (§3) SSTNIGF1R levels in the serum of treated animals were measured in triplicate using an AB Sciex QTrap 5500 mass spectrometry system at the UW School of Pharmacy and quantified by comparison with a standard curve of peptide in mouse serum. IGF1 levels in the serum of animals bearing UW-SCC22 or UW-SCC64 tumors were measured using an ELISA kit from Thermo Fisher Scientific (EMIGF1) and compared with a mouse IGF1 standard according to the manufacturer's instructions.

[3] = allows use as a therapeutic agent in vivo; cited from earlier work
[4] = tested on: Sdc1, IGF1R, ITGAV cell surface expression in UM-SCC47 cells; experiment: Immunofluorescent receptor staining of cultured cells; format: cell-based, human; settings: UM-SCC47 cells pretreated 6 hours with 30 μmol/L, compared with vehicle alone
Experimental: (§4) UM-SCC47 cells treated with or without the SSTNIGF1R peptide for 6 hours were fixed in 4% paraformaldehyde, permeabilized in 0.5% Triton X-100 in 1× CMF-PBS (pH 7.4), and blocked for 1 hour at room temperature in a 3% BSA/CMF-PBS solution. Cells were stained with 1 μg/mL anti-Sdc1 polyclonal antibody, 2 μg/mL ITGAV antibody (NBP1-85746), or 4 μg/mL antibody to IGF1R (AF-305-NA) for 1 hour at room temperature, followed by incubation with 4 μg/mL Alexa488-conjugated secondary antibodies for 1 hour at room temperature. The nuclei were stained with 3 μmol/L DAPI (Molecular Probes) in 1× CMF-PBS (pH 7.4) for 10 minutes. For PLA, antibodies against ITGAV and IGF1R were used as described previously, followed by staining with PLA reagents according to the manufacturer's instructions.

HTE = experiment: Stress and apoptosis marker antibody array; format: cell-based, human; settings: 16 hours, 30 μmol/L (mSSTNIGF1R per Fig. 4B)
Experimental: (§5) The activation of stress/apoptosis markers was analyzed as described previously ([17]). Caspase activity was measured in cells in complete culture medium with SSTNIGF1R or ASK inhibitor for 24 hours using Caspase 3/7-GLO in accordance with the manufacturer's instructions.

SCC25 cells [5] = experiment: Stress and apoptosis marker antibody array; format: cell-based, human; settings: SCC25 lysates; 16 hours, 30 μmol/L (mSSTNIGF1R per Fig. 4B); compared with vehicle
Experimental: as §5

HaCaT keratinocyte = experiment: Stress and apoptosis marker antibody array; format: cell-based, human; settings: 16 hours, 30 μmol/L (mSSTNIGF1R per Fig. 4B)
Experimental: as §5

NOK = experiment: Stress and apoptosis marker antibody array; format: cell-based, human; settings: 16 hours, 30 μmol/L (mSSTNIGF1R per Fig. 4B)
Experimental: as §5

UM-SCC47 cells [6] = experiment: Stress and apoptosis marker antibody array; format: cell-based, human; settings: UM-SCC47 lysates; 16 hours, 30 μmol/L (mSSTNIGF1R per Fig. 4B); compared with vehicle
Experimental: as §5

[7] = tested on: ASK-1 in UW-SCC64 PDX tumors; experiment: pT845-ASK1 staining of tumor sections; format: in vivo, nude mice; settings: as early as the 3-day timepoint
Experimental: as §1

[8] = tested on: ASK-1 in UW-SCC22 PDX tumors; experiment: pT845-ASK1 staining of tumor sections; format: in vivo, nude mice; settings: UW-SCC22 tumors treated by injection or pump for 4 weeks
Experimental: as §1

[9] = Serum peptide analysis by mass spectrometry; settings: mouse, in vivo, sc, mice, following sacrifice, 4.3 mg/kg/day by twice weekly subcutaneous injection, triplicate, read-out: steady-state concentration in plasma
Experimental: as §3

IGF1R in HaCat cells = target: T3, IGF1R in HaCat cells (Homo sapiens, UniProt P08069); experiment: IGF1R activation (pY1131) by immunoprecipitation and Western blot; format: cell-based; settings: 3 hours, 100 ng/mL DES(1–3)IGF1, 30 μmol/L hSSTNIGF1R
T3 construct: endogenous in cells; host or cells: HaCat
T3 sequence (P08069 31-1367): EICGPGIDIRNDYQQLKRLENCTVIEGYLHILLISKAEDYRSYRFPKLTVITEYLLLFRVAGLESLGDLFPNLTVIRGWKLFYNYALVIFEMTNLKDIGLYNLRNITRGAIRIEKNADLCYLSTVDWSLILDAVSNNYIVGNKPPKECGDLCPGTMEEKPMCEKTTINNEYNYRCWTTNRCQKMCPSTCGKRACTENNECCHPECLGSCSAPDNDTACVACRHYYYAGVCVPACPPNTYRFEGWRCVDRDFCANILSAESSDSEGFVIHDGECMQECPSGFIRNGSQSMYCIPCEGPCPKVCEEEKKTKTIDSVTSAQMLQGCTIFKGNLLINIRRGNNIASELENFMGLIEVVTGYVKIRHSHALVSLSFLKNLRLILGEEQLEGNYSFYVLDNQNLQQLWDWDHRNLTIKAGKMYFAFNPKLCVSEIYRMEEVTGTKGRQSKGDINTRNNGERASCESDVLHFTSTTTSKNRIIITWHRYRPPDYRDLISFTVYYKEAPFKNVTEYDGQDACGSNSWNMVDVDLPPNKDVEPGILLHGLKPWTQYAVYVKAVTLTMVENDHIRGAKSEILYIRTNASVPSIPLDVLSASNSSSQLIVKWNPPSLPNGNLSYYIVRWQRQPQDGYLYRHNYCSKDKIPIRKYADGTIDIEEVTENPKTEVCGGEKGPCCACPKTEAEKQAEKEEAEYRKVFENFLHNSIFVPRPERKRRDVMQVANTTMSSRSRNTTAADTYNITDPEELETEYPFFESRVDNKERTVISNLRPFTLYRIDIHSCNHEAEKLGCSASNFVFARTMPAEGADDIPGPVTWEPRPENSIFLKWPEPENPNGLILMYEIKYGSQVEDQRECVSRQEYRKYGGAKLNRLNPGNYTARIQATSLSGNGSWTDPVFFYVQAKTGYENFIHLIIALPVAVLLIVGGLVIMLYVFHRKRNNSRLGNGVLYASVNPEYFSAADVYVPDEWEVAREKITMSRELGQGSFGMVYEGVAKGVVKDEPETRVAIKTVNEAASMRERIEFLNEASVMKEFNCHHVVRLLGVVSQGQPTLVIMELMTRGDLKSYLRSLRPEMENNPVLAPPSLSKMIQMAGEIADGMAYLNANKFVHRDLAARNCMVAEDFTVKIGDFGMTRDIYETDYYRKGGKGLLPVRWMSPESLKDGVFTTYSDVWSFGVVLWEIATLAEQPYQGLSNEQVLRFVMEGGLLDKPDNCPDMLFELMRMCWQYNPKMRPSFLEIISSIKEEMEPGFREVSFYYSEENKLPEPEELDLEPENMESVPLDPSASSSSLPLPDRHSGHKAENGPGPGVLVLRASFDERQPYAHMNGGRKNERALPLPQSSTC
Experimental: (§6) Immunoprecipitation of IGF1R with or without competing SSTN peptide was carried out as described previously ([18, 19]) using 0.5–1.0 mg of input/sample and lysis buffer supplemented with HALT protease and phosphatase inhibitor cocktail (Thermo Fisher Scientific).

IGF1R in UM-SCC47 cells = target: T4, IGF1R in UM-SCC47 cells (Homo sapiens, UniProt P08069); experiment: as above; format: cell-based; settings: 3 hours, 100 ng/mL DES(1–3)IGF1, 30 μmol/L hSSTNIGF1R
T4 construct: constitutively active IGF1R is identified in UW-SCC47 cells by staining for pY1131; endogenous in cells; host or cells: UM-SCC47
T4 sequence (P08069 31-1367): as above
Experimental: as §6

[10] = target: T5, IGF1R and ITGAV pairing (Sdc1:IGF1R:ITGAV receptor complex) in UM-SCC47 cells (Homo sapiens, UniProt P08069); experiment: Proximity ligation assay ITGAV:IGF1R in cultured cells; format: cell-based; settings: UM-SCC47 cells pretreated for 6 hours with 30 μmol/L; 15 images over three experiments
T5 construct: endogenous in cells; host or cells: UM-SCC47
T5 sequence (P08069 31-736 limits assumed, one chain of several): as the sequence (P08069 31-736 limits assumed) above
Experimental: as §4

[11] = tested on: ASK1 (pT845), pp38MAPK, pJNK in UM-SCC47 cells; experiment: Temporal activation of ASK1, p38MAPK and JNK; format: cell-based, human; settings: 30 minutes after treatment with 30 μmol/L hSSTNIGF1R
UM-SCC47 cells [12] = experiment: Caspase assay (Caspase 3/7-GLO); format: cell-based, human; settings: 24 hours, increasing concentrations of NQD1 up to 30 μmol/L
Experimental: as §5

UM-SCC47 cells [13] = tested on: UM-SCC47 cells
SCC25 cells [14] = tested on: SCC25 cells
SCC6 HNSCC cell line = experiment: Cell proliferation assay (CellTiter-GLO); format: cell-based, human; settings: 4 days, up to 30 μmol/L, n = 4
Experimental: (§7) Cells (1–2 × 10^3/well) were plated in 96-well plates in complete culture medium in the presence or absence of the SSTNIGF1R peptide for 72–120 hours, or alternatively in the presence or absence of the SSTNIGF1R peptide or ASK inhibitor for 24 hours. Cell growth was measured against a standard curve using CellTiter-GLO, in accordance with the manufacturer's instructions.

[15] = tested on: NOKs (normal oral keratinocytes); experiment: Cell proliferation assay (CellTiter-GLO); format: cell-based, human; settings: NOK, 4 days, up to 30 μmol/L, n = 3
Experimental: as §7

UM-SCC1 HNSCC cell line = experiment: Cell proliferation assay (CellTiter-GLO); format: cell-based, human; settings: 4 days, up to 30 μmol/L, n = 4
Experimental: as §7

HaCaT keratinocytes = experiment: Cell proliferation assay (CellTiter-GLO); format: cell-based, human; settings: 4 days, up to 30 μmol/L, n = 3
Experimental: as §7

normal HTE cells = experiment: Cell proliferation assay (CellTiter-GLO); format: cell-based, human; settings: 4 days, up to 30 μmol/L, n = 3
Experimental: as §7

TU-138 HNSCC cell line = experiment: Cell proliferation assay (CellTiter-GLO); format: cell-based, human; settings: 4 days, up to 30 μmol/L, n = 4
Experimental: as §7

SCC90 HNSCC cell line = experiment: Cell proliferation assay (CellTiter-GLO); format: cell-based, human; settings: 4 days, up to 30 μmol/L, n = 4
Experimental: as §7

UD-SCC2 HNSCC cell line = experiment: Cell proliferation assay (CellTiter-GLO); format: cell-based, human; settings: 4 days, up to 30 μmol/L, n = 4
Experimental: as §7

T1 sequence (P08069 31-736 limits assumed): as above

reduction of ITGAV and IGF1R pairing (PLA) ([1]; UW-SCC64 tumors after 3-day treatment): 80%
ITGAV and IGF1R pairing (PLA) ([1]; UW-SCC64 tumors, 5-week treatment): essentially abolished
reduction of ITGAV and IGF1R pairing (PLA) ([2]; plasma concentration 13 μmol/L (injection), versus saline-treated tumors): 90%
ITGAV and IGF1R pairing (PLA) ([2]; plasma concentration 32 μmol/L, pump-mediated delivery): reduced to nearly undetectable levels
serum levels of IGF1 (Serum IGF1 ELISA; animals bearing UW-SCC22 tumors): no change
serum levels of IGF1 (Serum IGF1 ELISA; animals bearing UW-SCC64 tumors): no change
IGF1 (ng/mL) ± SD (Serum IGF1 ELISA; serum of mice bearing UW-SCC22, saline control 34.8 ± 1.0): 34.6 ± 0.9 ng/mL
IGF1 (ng/mL) ± SD (Serum IGF1 ELISA; serum of mice bearing UW-SCC64, saline control 34.0 ± 0.9): 33.7 ± 1.1 ng/mL
level at time molar [9]: 13 µM
IGF1-mediated activation of IGF1R (pY1131) (IGF1R in HaCat cells): unaffected
IGF1-mediated activation of IGF1R (pY1131) (IGF1R in UM-SCC47 cells): blocked
PLA signal, colocalization of IGF1R and ITGAV [10]: signal is lost
Compound: STSTLPAGEGPKEGEAVVLPEVEPGLTAREQE [hSSTNIGF1R]
reduction of tumor growth compared with controls (UW-SCC22 HNSCC PDX; 4.3 mg/kg/day, Alzet pump): approximately 94%
tumor size after treatment (UW-SCC22 HNSCC PDX; 4.3 mg/kg/day, constant infusion via Alzet pump, start 102 ± 21 mm^3, saline 2,767 ± 631 mm^3): 270 ± 49 mm^3
tumor size after treatment (UW-SCC22 HNSCC PDX; 4.3 mg/kg/day, twice weekly subcutaneous injection): 664 ± 138 mm^3
reduction of tumor growth compared with controls (UW-SCC22 HNSCC PDX; twice weekly subcutaneous injection): 79%
reduction of tumor growth compared with saline-treated controls (UW-SCC64 PDX): 85%
half-life [3]: ~24 h
cell surface expression of Sdc1, IGF1R, ITGAV [4]: no change
change in apoptotic markers (antibody array) (HTE): little or no response
change in apoptotic markers (antibody array) (SCC25 cells [5]): significant increases in activated caspase 3 and PARP, and reduced levels of survivin and phosphorylated Erk, Akt, and Bad
change in apoptotic markers (antibody array) (HaCaT keratinocyte): little or no response
change in apoptotic markers (antibody array) (NOK): little or no response
change in apoptotic markers (antibody array) (UM-SCC47 cells [6]): significant increases in activated caspase 3 and PARP, and reduced levels of survivin and phosphorylated Erk, Akt, and Bad
pT845-ASK1 staining [7]: pT845 staining indicative of ASK-1 activation
pT845-ASK-1 staining [8]: Positive staining
active ASK1 (pT845), pp38MAPK, and pJNK [11]: increased

Compound: CCOC(=O)c1c2c3c(cccc3[nH]c1=O)C(=O)c1ccccc1-2 [NQD1, NQDI-1]
caspase 3 activation induced by 30 μmol/L SSTNIGF1R (UM-SCC47 cells [12]): gradually reduce
restoration of cell growth in the SSTN-treated cells (UM-SCC47 cells [13]; UM-SCC47, 24 hours, NQD1 up to 30 μmol/L with 30 μmol/L SSTNIGF1R, CellTiter-GLO): 80%

IC50 (SCC25 cells [14]): 1 to 10 µM
IC50 (UM-SCC47 cells [13]): 1 to 10 µM
Compound: LPAGEKPEEGEPVLHVEAEPGFTARDKE [active mSSTNIGF1R]
cell growth (SCC6 HNSCC cell line): reduced growth
cell growth [15]: unaffected
cell growth (UM-SCC1 HNSCC cell line): reduced growth
cell growth (HaCaT keratinocytes): unaffected
cell growth (normal HTE cells): unaffected
cell growth (TU-138 HNSCC cell line): reduced growth
cell growth (SCC90 HNSCC cell line): reduced growth
cell growth (UD-SCC2 HNSCC cell line): reduced growth

Compound: inactive mSSTNIGF1R: Inactive control peptide, amino acids 94–119 of mouse Sdc1 (AGEKPEEGEPVLHVEAEPGFTARDKE; UniProt P18828 94-119, looked up, fragment) [reference compound]
effect on cell numbers (SCC25 cells [14]; SCC25, up to 6 days, concentration range, CellTiter-GLO): no effect
effect on cell numbers (UM-SCC47 cells [13]; UM-SCC47, up to 6 days, concentration range, CellTiter-GLO): no effect

From PMC10035507, “Inhibiting IGF1R-mediated Survival Signaling in Head and Neck Cancer with the Peptidomimetic SSTNIGF1R” (Cancer Research Communications, 2023)
